Reference: US20250332173A1, “COMPOUNDS AND METHODS FOR MODULATING NUCLEIC ACID SPLICING” (REMIX THERAPEUTICS INC., priority 2021, published 2025)
Read-outs that look alike come from different tables or passages of the source.

Legend:
Format in all cases: cell-based, human
MYB mRNA = experiment: RT-qPCR splicing assay, MYB canonical junction (CJ) and alternative junction (AJ) mRNA; conditions: Homo sapiens; for AC50: increase in MYB alternative junction (AJ) mRNA, read-out: MYB AJ AC50
How it was run: (§1)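 Read-out is one-step RT-qPCR on cell lysates detecting the exon-exon junction of each isoform, normalized to a housekeeping gene (PPIA in A673, GAPDH or GUSB in K562).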

SMN2 mRNA = experiment: RT-qPCR splicing assay, SMN2 canonical junction (CJ) mRNA; conditions: Homo sapiens
How it was run: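 A673 or K562 cells were treated for 24 h at 37 °C with compound in 11-point 3-fold dilution (top 10 uM final, DMSO ≤0.25%). Lysates then went to one-step RT-qPCR measuring canonical-junction mRNA, normalized to GAPDH, GUSB or PPIA.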

HTT mRNA = experiment: RT-qPCR splicing assay, HTT canonical junction (CJ) and alternative junction (AJ) mRNA; conditions: Homo sapiens; for AC50: increase in HTT alternative junction (AJ) mRNA, read-out: HTT AJ AC50
How it was run: as §1

[1] = Table 5 panel, canonical junction qPCR, compound concentration having 50% response in CJ decrease, read-out: MYB IC50 (decrease in CJ mRNA levels)
[2] = decrease in MYB canonical junction (CJ) mRNA, RT-qPCR, read-out: MYB CJ IC50
[3] = Table 5 panel, canonical junction qPCR, compound concentration having 50% response in CJ decrease, read-out: SMN2 IC50 (decrease in CJ mRNA levels)
[4] = decrease in HTT canonical junction (CJ) mRNA, RT-qPCR, read-out: HTT CJ IC50
[5] = Table 5 panel, canonical junction qPCR, compound concentration having 50% response in CJ decrease, read-out: HTT IC50 (decrease in CJ mRNA levels)
[6] = canonical junction qPCR panel, Table 5, read-out: MYB (decrease in CJ mRNA levels, IC50)
[7] = canonical junction qPCR panel, Table 5, read-out: SMN2 (decrease in CJ mRNA levels, IC50)
[8] = canonical junction qPCR panel, Table 5, read-out: HTT (decrease in CJ mRNA levels, IC50)

SMILES | IC50 (MYB mRNA; [1]) | IC50 (MYB mRNA; [2]) | AC50 (MYB mRNA; RT-qPCR) | IC50 (SMN2 mRNA; [3]) | IC50 (HTT mRNA; [4]) | AC50 (HTT mRNA; RT-qPCR) | IC50 (HTT mRNA; [5]) | IC50 (MYB mRNA; [6]) | IC50 (SMN2 mRNA; [7]) | IC50 (HTT mRNA; [8])
Cc1cn2cc(-c3ccc4c(=O)n(C5CCNC6(CC6)C5)cnc4c3)cc(F)c2n1 (stereo not shown) [Compound 236] | 100 to 1000 nM | < 100 nM | 100 to 1000 nM | < 100 nM | 100 to 1000 nM | 100 to 1000 nM | 100 to 1000 nM | – | – | –
Cc1nc2c(F)cc(-c3ccc4c(c3)CCN(C3CCNCC3)C4=O)cc2s1 [Compound 226] | 1000 to 10000 nM | 1000 to 10000 nM | 1000 to 10000 nM | 100 to 1000 nM | > 10000 nM | > 10000 nM | > 10000 nM | – | – | –
Cc1cc(-c2cc(F)c3c(=O)n(C4CCN(C)CC4)cnc3c2)cc2cn(C)nc12 [Compound 233] | 100 to 1000 nM | 100 to 1000 nM | 100 to 1000 nM | < 100 nM | 100 to 1000 nM | 100 to 1000 nM | 100 to 1000 nM | – | – | –
Cc1cn2nc(-c3ccc4c(=O)n(C5C[C@@H](C)N[C@H](C)C5)ncc4n3)cc(C)c2n1 (stereo in doubt) [Compound 1537, 2-(2,8-dimethylimidazo[1,2-b]pyridazin-6-yl)-6-[(2R,6R)-2,6-dimethyl-4-piperidyl]pyrido[2,3-d]pyridazin-5-one] | – | 100 to 1000 nM | 100 to 1000 nM | – | 100 to 1000 nM | 100 to 1000 nM | – | 100 to 1000 nM | < 100 nM | 100 to 1000 nM
Cn1cc2cc(-c3ccc4c(=O)n(C5CCNCC5)cnc4c3)cc(F)c2n1 [Compound 206] | 100 to 1000 nM | < 100 nM | 100 to 1000 nM | < 100 nM | 100 to 1000 nM | 100 to 1000 nM | 100 to 1000 nM | – | – | –
CN1CCC(n2cnc3cc(-c4ccc5nn(C)cc5c4)ccc3c2=O)CC1 [Compound 208] | 1000 to 10000 nM | 1000 to 10000 nM | 1000 to 10000 nM | 100 to 1000 nM | 1000 to 10000 nM | > 10000 nM | > 10000 nM | – | – | –
Cc1nc2c(F)cc(-c3ccc4c(c3)CCN(C3CCNCC3)C4=O)cc2o1 [Compound 215] | 1000 to 10000 nM | 1000 to 10000 nM | 1000 to 10000 nM | < 100 nM | 1000 to 10000 nM | 1000 to 10000 nM | 1000 to 10000 nM | – | – | –
Cc1cn2cc(-c3ccc4c(c3)CCN(C3CCNCC3)C4=O)cc(C)c2n1 [Compound 217, 6-[2,8-dimethylimidazo[1,2-a]pyridin-6-yl]-2-(piperidin-4-yl)-3,4-dihydroisoquinolin-1-one] | 1000 to 10000 nM | 1000 to 10000 nM | 1000 to 10000 nM | 100 to 1000 nM | 1000 to 10000 nM | 1000 to 10000 nM | 1000 to 10000 nM | – | – | –
Cc1cc(-c2ccc3c(=O)n(C4CCN(C)CC4)cnc3c2F)cc2cn(C)nc12 [Compound 235] | > 10000 nM | > 10000 nM | > 10000 nM | 100 to 1000 nM | > 10000 nM | > 10000 nM | > 10000 nM | – | – | –
Cc1cc(-c2cc(F)c3c(=O)n(C4CCNCC4)cnc3c2)cc2cn(C)nc12 [Compound 232] | < 100 nM | < 100 nM | < 100 nM | < 100 nM | < 100 nM | < 100 nM | < 100 nM | – | – | –
Cc1c(O)c(-c2ncc3c(=O)n([C@@H]4CCN[C@@H](C)C4)ccc3n2)cc2cn(C)nc12 [Compound 1462, 2-(6-hydroxy-2,7-dimethyl-indazol-5-yl)-6-[(2S,4R)-2-methyl-4-piperidyl]pyrido[4,3-d]pyrimidin-5-one] | – | < 100 nM | < 100 nM | – | 100 to 1000 nM | 100 to 1000 nM | – | < 100 nM | < 100 nM | 100 to 1000 nM
Cc1c(O)c(-c2ncc3c(=O)n([C@H]4CC[C@H](N(C)C)CC4)ccc3n2)cc2cn(C)nc12 [Compound 1459, 6-((1r,4r)-4-(dimethylamino)cyclohexyl)-2-(6-hydroxy-2,7-dimethyl-2H-indazol-5-yl)pyrido[4,3-d]pyrimidin-5(6H)-one] | – | 100 to 1000 nM | < 100 nM | – | 100 to 1000 nM | 100 to 1000 nM | – | < 100 nM | < 100 nM | 100 to 1000 nM
Cc1cn2cc(-c3ccc4c(c3)CCN(C3CCNCC3)C4=O)ncc2n1 [Compound 224] | > 10000 nM | 1000 to 10000 nM | > 10000 nM | 100 to 1000 nM | > 10000 nM | > 10000 nM | > 10000 nM | – | – | –
